Details in all cases: 72 h
Assay [1] relates to BT-474. Nature of the assay: drug sensitivity score (DSS), cytotoxicity CellTox Green; higher = more cytotoxic; extreme values may be limits of the assay. As to the method:
(§1)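 Targeted FIMM drug screen of 23 compounds at 5 concentrations over a 10,000-fold range in 384-well plates, 1250 cells/well, 72 h at 37 °C. Read-outs were CellTiter-Glo viability and CellTox Green cytotoxicity, normalised to DMSO and benzethonium chloride controls and summarised as drug sensitivity score (DSS). Cells stably transduced with shScramble or one of two shPPFIA1 constructs (shPPFIA1_1 TRCN0000002969, shPPFIA1_2 TRCN0000342514).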

The subject of assay [2] is UT-SCC-24A. The description is as above. The method, then:
as §1

In assay [3] the test system is MDA-MB-231. The description is as above.
The test system of assay [4] is MDA-MB-231. Briefly: drug sensitivity score (DSS), cell viability CellTiter-Glo; higher = more sensitive; extreme values may be limits of the assay.
Assay [5] concerns BT-474. The assay is described as above. As to the method: as §1
Assay [6] concerns UT-SCC-24A. The assay is described as above. The method, then:
as §1

Consider six compounds from the supplement of paper PMC10920090.

For the compound `O=C(NC[C@H](O)CO)c1ccncc1Nc1ccc(I)cc1F` [Pimasertib], the drug sensitivity score was found to be 0 DSS in assay [1] (shRNA: shPPFIA1_1); 0.2 DSS in assay [1] (shRNA: shPPFIA1_2); 0 DSS in assay [1] (shRNA: shScramble); 28.5 DSS in assay [2] (shRNA: shPPFIA1_1); 23.5 DSS in assay [2] (shRNA: shPPFIA1_2); 15.6 DSS in assay [2] (shRNA: shScramble). The drug sensitivity score in assay [3] (shRNA: shPPFIA1_1) came to 6.2 DSS; in assay [3] (shRNA: shScramble), 11.7 DSS; in assay [4] (shRNA: shPPFIA1_1) it was 2.4 DSS; in assay [4] (shRNA: shScramble) it was 12.4 DSS; in assay [5] (shRNA: shPPFIA1_1), 0.1 DSS; in assay [5] (shRNA: shPPFIA1_2), 0.5 DSS. Moreover, the drug sensitivity score came to 0.4 DSS in assay [5] (shRNA: shScramble), 25.6 DSS in assay [6] (shRNA: shPPFIA1_1), 23.4 DSS in assay [6] (shRNA: shPPFIA1_2) and 20.5 DSS in assay [6] (shRNA: shScramble).

As to `COc1cc(C(=O)NC2CCN(C)CC2)c(F)cc1Nc1ncc2c(n1)N(C1CCCC1)CC(F)(F)C(=O)N2C` [TAK-960], the drug sensitivity score in assay [1] (shRNA: shPPFIA1_1), in assay [1] (shRNA: shPPFIA1_2), in assay [1] (shRNA: shScramble), in assay [2] (shRNA: shPPFIA1_1), in assay [2] (shRNA: shPPFIA1_2) and in assay [2] (shRNA: shScramble) was 0 DSS throughout. The drug sensitivity score in assay [3] (shRNA: shPPFIA1_1) worked out at 0 DSS; in assay [3] (shRNA: shScramble), 0.9 DSS; in assay [4] (shRNA: shPPFIA1_1) it was 4.9 DSS; in assay [4] (shRNA: shScramble) it was 20.6 DSS; in assay [5] (shRNA: shPPFIA1_1) it was 0 DSS; in assay [5] (shRNA: shPPFIA1_2) it was 0 DSS. In addition, the drug sensitivity score in assay [5] (shRNA: shScramble), in assay [6] (shRNA: shPPFIA1_1), in assay [6] (shRNA: shPPFIA1_2) and in assay [6] (shRNA: shScramble) was 0 DSS in each case.

As to `CO[C@H]1C[C@@H]2CC[C@@H](C)[C@@](O)(O2)C(=O)C(=O)N2CCCC[C@H]2C(=O)O[C@H]([C@H](C)C[C@@H]2CC[C@@H](OC(=O)C(C)(CO)CO)[C@H](OC)C2)CC(=O)[C@H](C)/C=C(\C)[C@@H](O)[C@@H](OC)C(=O)[C@H](C)C[C@H](C)/C=C/C=C/C=C/1C` [Temsirolimus], the drug sensitivity score in assay [1] (shRNA: shPPFIA1_1), in assay [1] (shRNA: shPPFIA1_2), in assay [1] (shRNA: shScramble), in assay [2] (shRNA: shPPFIA1_1), in assay [2] (shRNA: shPPFIA1_2) and in assay [2] (shRNA: shScramble) was 0 DSS in each case. The drug sensitivity score in assay [3] (shRNA: shPPFIA1_1) stood at 0 DSS; in assay [3] (shRNA: shScramble) it was 0 DSS; in assay [4] (shRNA: shPPFIA1_1) it was 0 DSS; in assay [4] (shRNA: shScramble), 7.9 DSS; in assay [5] (shRNA: shPPFIA1_1), 7.8 DSS; in assay [5] (shRNA: shPPFIA1_2) it was 6.2 DSS. For the same compound, the drug sensitivity score in assay [5] (shRNA: shScramble) amounted to 9.8 DSS; in assay [6] (shRNA: shPPFIA1_1), 2.8 DSS; in assay [6] (shRNA: shPPFIA1_2), 4.1 DSS; in assay [6] (shRNA: shScramble), 4.4 DSS.

Consider `CC(=O)Nc1cccc(-n2c(=O)n(C3CC3)c(=O)c3c(Nc4ccc(I)cc4F)n(C)c(=O)c(C)c32)c1` [Trametinib], for which the drug sensitivity score came to 0 DSS in assay [1] (shRNA: shPPFIA1_1); 0 DSS in assay [1] (shRNA: shPPFIA1_2); 0 DSS in assay [1] (shRNA: shScramble); 18.9 DSS in assay [2] (shRNA: shPPFIA1_1); 18.4 DSS in assay [2] (shRNA: shPPFIA1_2); 7.8 DSS in assay [2] (shRNA: shScramble). Further, the drug sensitivity score in assay [3] (shRNA: shPPFIA1_1) came to 5.3 DSS; in assay [3] (shRNA: shScramble), 12.5 DSS; in assay [4] (shRNA: shPPFIA1_1) it was 0.7 DSS; in assay [4] (shRNA: shScramble), 12.4 DSS; in assay [5] (shRNA: shPPFIA1_1), 0 DSS; in assay [5] (shRNA: shPPFIA1_2), 0 DSS. Also, the drug sensitivity score in assay [5] (shRNA: shScramble) is 0.1 DSS; in assay [6] (shRNA: shPPFIA1_1), 19.6 DSS; in assay [6] (shRNA: shPPFIA1_2), 18.5 DSS; in assay [6] (shRNA: shScramble), 15.4 DSS.

With `C[C@@H]1COC(Nc2ccc3ncnc(Nc4ccc(OCc5nccs5)c(Cl)c4)c3c2)=N1` [Varlitinib], the drug sensitivity score stood at 3.1 DSS in assay [1] (shRNA: shPPFIA1_1); 4.5 DSS in assay [1] (shRNA: shPPFIA1_2); 3.9 DSS in assay [1] (shRNA: shScramble); 10.3 DSS in assay [2] (shRNA: shPPFIA1_1); 10.1 DSS in assay [2] (shRNA: shPPFIA1_2); 4 DSS in assay [2] (shRNA: shScramble). The drug sensitivity score in assay [3] (shRNA: shPPFIA1_1) worked out at 0.2 DSS; in assay [3] (shRNA: shScramble), 0 DSS; in assay [4] (shRNA: shPPFIA1_1), 1 DSS; in assay [4] (shRNA: shScramble), 21.3 DSS; in assay [5] (shRNA: shPPFIA1_1), 8.2 DSS; in assay [5] (shRNA: shPPFIA1_2) it was 9.3 DSS. In addition, the drug sensitivity score in assay [5] (shRNA: shScramble) was 10.7 DSS; in assay [6] (shRNA: shPPFIA1_1), 10.7 DSS; in assay [6] (shRNA: shPPFIA1_2), 11 DSS; in assay [6] (shRNA: shScramble) it was 9 DSS.

With `CCC1=C[C@@H]2CN(C1)Cc1c([nH]c3ccccc13)[C@@](C(=O)OC)(c1cc3c(cc1OC)N(C)[C@H]1[C@@](O)(C(=O)OC)[C@H](OC(C)=O)[C@]4(CC)C=CCN5CC[C@]31[C@@H]54)C2` [Vinorelbine], the drug sensitivity score in assay [1] (shRNA: shPPFIA1_1) is 11.1 DSS; in assay [1] (shRNA: shPPFIA1_2) it was 13.2 DSS; in assay [1] (shRNA: shScramble), 13.8 DSS; in assay [2] (shRNA: shPPFIA1_1) it was 8.4 DSS; in assay [2] (shRNA: shPPFIA1_2), 8.4 DSS; in assay [2] (shRNA: shScramble), 13.1 DSS. Also, the drug sensitivity score is 7.2 DSS in assay [3] (shRNA: shPPFIA1_1); 2.7 DSS in assay [3] (shRNA: shScramble); 0 DSS in assay [4] (shRNA: shPPFIA1_1); 19.9 DSS in assay [4] (shRNA: shScramble); 9.2 DSS in assay [5] (shRNA: shPPFIA1_1); 10 DSS in assay [5] (shRNA: shPPFIA1_2). The drug sensitivity score in assay [5] (shRNA: shScramble) turned out to be 18.7 DSS; in assay [6] (shRNA: shPPFIA1_1), 12 DSS; in assay [6] (shRNA: shPPFIA1_2), 18 DSS; in assay [6] (shRNA: shScramble), 15.3 DSS.
